The text below walks through data of US20040034082A1, “Utilization of pyrazoline derivatives in the preparation of a medicament for the prevention and/or treatment of proliferative cell diseases” (priority 2001, published 2004).

In one series the test system is TNF-α. In words: Inhibition of TNF-α, zymosan air pouch model in mice (ELISA). As to conditions: i.p. The class given is in vivo. Here is the method:
The study of the inhibitory activity of TNF-α has been performed according to the method described by P. Klemen et al. (Europ. J. Pharmacol. 1995 281: 69-74), consisting of determining the production of TNF-α in the localised area where the inflammation is acute, specifically using the zymosan inflated air pouch model in mice. The TNF-α present in the inflammatory exudates produced in said pouch as a result of the stimulation with zymosan was determined. The analytical determination of TNF-α was performed by ELISA.

The subject of series [1] is promoter of the gene COX-2. In words: Inhibition of the induction of COX-2: stable transfectant JURKAT cells, COX-2 promoter-luciferase, TPA+ionomycine. It counts as cell-based. As to conditions: Homo sapiens.
Series [2] relates to promoter of the human VEGF gene. The series is described as follows: Inhibition of the induction of VEGF: promoter-luciferase in transfected Caco-2 cells, TPA. The class given is cell-based. The following applies: TPA 16 hours, read-out: Inhibition of the induction of VEGF IC-50. The source says: This activity has been studied determining the inhibition of the induction of the expression of VEGF. The increased expression of vascular-endothelial growth factor (VEGF) has been related to tumour progression and angiogenesis. VEGF is a proangiogenic factor, promoting mitogenesis, migration and an increased vascular permeability of in vitro endothelial cells. It has been shown recently that COX-2 can regulate the angiogenesis process induced by colon cancer cells, increasing the expression of proangiogenic factors by said cells. Inhibition of COX-2 may block this process, inhibiting the expression of some of these factors, such as VEGF.
(§1) In order to study the antiangiogenic activity of the products with general formula (I), the expression of the VEGF promoter was studied in a basal and stimulated situation using the Caco-2 human colon carcinoma cell line, temporally transfected with a vector containing the promoter f the human VEGF gene. Once the test conditions were established the capability of the product studied to inhibit the expression of the VEGF and TF genes was studied by measuring the luciferase activity of their promoters.
In the test 1.25×10^5 Caco-2 cells were used temporally transfected with t corresponding DNA in 500 μl of DEMEM-10% FCS medium in 24 dimple plates. […]

The subject of another series is NC59. In words: Cytotoxicity (XTT kit), human colon carcinoma cell line NC59. As to conditions: for IC50: read-out: IC-50 (cytotoxicity). It counts as cell-based. Here is the method: (§2) The anti-tumoral activity of the compounds with general formula (I) was studied, determining their effect on cell lines of human colon carcinoma (TD 20 and NC 59). The two cell lines have the wild protein K-Ras. TD20 contains a mutation of the p53 suppressor gene, while NC59 has the p53 wild protein.
(§3) Both cell lines were cultured in a DMEM medium (Life Technologies) supplemented with 10% foetal bovine serum (Life Technologies) at 37° C. and 5% CO2.
(§4) Cytotoxicity tests were carried out using the XTT kit (Boehringer-Manheim) which measures the cell capability to metabolise a tetrazoyl salt to formazan.

The next series concerns TF. The series is described as follows: Inhibition of the induction of TF: promoter-luciferase in transfected Caco-2 cells, TPA. It counts as cell-based. The following applies: Homo sapiens, TPA 16 hours, read-out: Inhibition of the induction of TF IC-50.
Excerpt: In turn, VEGF also induces the expression of Tissue Factor (TF) in monocyte membranes, epithelial cells and endothelium. Although the main function of TF is to initiate the coagulation cascade, it can transduce intracellular signals participating in metastasis and angiogenesis associated to tumours. TF facilitates in vivo growth of the tumour, favouring angiogenesis.
as §1
In the test 1.25×10^5 Caco-2 cells were used temporally transfected with t corresponding DNA in 500 μl of DEMEM-10% FCS medium in 24 dimple plates. The cells were pre-treated for 1 hour with the compounds to be tested, and later stimulated with TPA for 16 hours. Afterwards cell extracts were obtained and their luciferase activity examined, determining the protein concentration.

Another series relates to TD 20. The series is described as follows: Cytotoxicity (XTT kit), human colon carcinoma cell line TD20. The class given is cell-based. As to conditions: for IC50: read-out: IC-50 (cytotoxicity). Here is the method:
as §2, §3, §4

In another series the test system is MDAMB 453. In words: Cytotoxicity (XTT kit), mammary carcinoma cell line MDAMB 453. The class given is cell-based. The following applies: for IC50: read-out: IC-50 (cytotoxicity). Here is the method: The anti-tumoral activity of the compounds with general formula (I) was studied, determining their effect on a mammary carcinoma cell line (MDAMB 453). The cell line was cultured in a DMEM medium (Life Technologies) supplemented with 10% foetal bovine serum (Life Technologies) at 37° C. and 5% CO2.
as §4

The mark [3] stands for this setting: Homo sapiens, Colon carcinoma cell, 1 μM, read-out: % Viability of colorectal cancer cells ± SD.
Where [4] appears, read: Homo sapiens, Colon carcinoma cell, 20 μM, read-out: % Viability of colorectal cancer cells ± SD.
Where [5] appears, read: Homo sapiens, Colon carcinoma cell, 40 μM, read-out: % Viability of colorectal cancer cells ± SD.
The mark [6] stands for this setting: Homo sapiens, Colon carcinoma cell, 60 μM, read-out: % Viability of colorectal cancer cells ± SD.
Where [7] appears, read: Homo sapiens, Colon carcinoma cell, 80 μM, read-out: % Viability of colorectal cancer cells ± SD.
Setting [8] is: Homo sapiens, Colon carcinoma cell.

SMILES strings stand for the structures. Converted amounts (≈) assume the structure as drawn. Where two headings read alike, the source gives them in different places.

Regarding `CS(=O)(=O)c1ccc(C2CC(C(F)(F)F)=NN2c2ccc(F)cc2)cc1` (stereo not drawn) [Example 10], the “% Inhibition of TNF-α in inflammatory exudate stimulated by zymosan” value in the series on TNF-α (0.039 mg/kg) stood at 12.6 ± 2.6%; in the series with TNF-α (0.156 mg/kg) it was 15.7 ± 4.9%; in the series on TNF-α (0.625 mg/kg), 46.8 ± 12.5%; in the series with TNF-α (2.5 mg/kg), 58.8 ± 13.6%. Also, the “DE-50, inhibition of TNF-α” value in the series on TNF-α was “DE-50 = 1.20 mg/kg, i.p”. The inhibition at 0.5 µg/mL in series [1] (Clone C7, 0.5 μg/ml) amounted to 20%; in series [1] (Clone C9, 0.5 μg/ml) it was 40%; in series [1] (Clone F9, 0.5 μg/ml) it was 32%. In addition, the inhibition at 5 µg/mL in series [1] (Clone C7, 5 μg/ml) came to 55%; in series [1] (Clone C9, 5 μg/ml), 75%; in series [1] (Clone F9, 5 μg/ml), 65%. For the same compound, the inhibition at 50 µg/mL in series [1] (Clone C7, 50 μg/ml) was 85%; in series [1] (Clone C9, 50 μg/ml), 85%; in series [1] (Clone F9, 50 μg/ml) it was 95%. Moreover, the IC50 was determined as 5.8 µg/mL (≈ 15 µM) in series [1] (Clone C7, read-out: IC-50 (μg/ml), inhibition of luciferase activity); 0.9 µg/mL (≈ 2.33 µM) in series [1] (Clone C9, read-out: IC-50 (μg/ml), inhibition of luciferase activity); 1.8 µg/mL (≈ 4.66 µM) in series [1] (Clone F9, read-out: IC-50 (μg/ml), inhibition of luciferase activity); 25 µg/mL (≈ 64.7 µM) in series [2]; 27 µM in the series on NC59 (setting [8]); 27.2 µM in the series on NC59. Besides, the IC50 in the series with TF stood at 22 µg/mL (≈ 56.9 µM); in the series with TD 20 (setting [8]), 38 µM; in the series on TD 20, 37.9 µM; with MDAMB 453 (Homo sapiens, MDA-MB-453, MDAMB 453) it was 18 µM; with MDAMB 453 (MDAMB 453), 17.9 µM. The viability at 1 µM in the series on NC59 (setting [3]) was found to be 92.1 ± 9.35%; in the series on TD 20 (setting [3]), 95 ± 8.87%; in the series with MDAMB 453 (Homo sapiens, MDA-MB-453, MDAMB 453, 1 μM, read-out: % Viability of mammary cancer cells ± SD), 97.5 ± 3.25%. Moreover, the viability at 20 µM was determined as 76.1 ± 7.17% in the series on NC59 (setting [4]); 90.2 ± 5.97% in the series on TD 20 (setting [4]); 42.8 ± 9.31% in the series with MDAMB 453 (Homo sapiens, MDA-MB-453, MDAMB 453, 20 μM, read-out: % Viability of mammary cancer cells ± SD). Moreover, the viability at 40 µM with NC59 (setting [5]) is 15.8 ± 9.37%; with TD 20 (setting [5]) it was 43.1 ± 13.8%; in the series on MDAMB 453 (Homo sapiens, MDA-MB-453, MDAMB 453, 40 μM, read-out: % Viability of mammary cancer cells ± SD) it was 33.3 ± 7.34%. Also, the viability at 60 µM in the series on NC59 (setting [6]) was found to be 2.59 ± 1.54%; in the series on TD 20 (setting [6]) it was 5.42 ± 4.11%; in the series with MDAMB 453 (Homo sapiens, MDA-MB-453, MDAMB 453, 60 μM, read-out: % Viability of mammary cancer cells ± SD), 8.25 ± 6.82%. Moreover, the viability at 80 µM in the series on NC59 (setting [7]) came to 1.66 ± 1.57%; with TD 20 (setting [7]), 3.22 ± 3.46%; with MDAMB 453 (Homo sapiens, MDA-MB-453, MDAMB 453, 80 μM, read-out: % Viability of mammary cancer cells ± SD), 5.8 ± 4.76%.
Take `Cc1cc(F)ccc1C1CC(C(F)(F)F)=NN1c1ccc(S(N)(=O)=O)cc1` (stereo not drawn) [Example 62]: the melting point is 154 to 160 °C.
Regarding `NS(=O)(=O)c1ccc(N2N=C(C(F)(F)F)CC2c2cccc(F)c2F)cc1` (stereo not drawn) [Example 23], the melting point fell in the range of 152 to 154 °C.
The compound `NS(=O)(=O)c1ccc(N2N=C(C(F)(F)F)CC2c2ccc(C(F)(F)F)cc2C(F)(F)F)cc1` (stereo not drawn) [Example 54] came in with a melting point of 212 to 214 °C.
`Cc1ccc(C2CC(C(F)(F)F)=NN2c2ccc(S(N)(=O)=O)cc2)cc1C` (stereo not drawn) [Example 44]: the melting point lay in the range of 152 to 155 °C.
Turning to `CS(=O)(=O)c1ccc(C2CC(C(F)(F)F)=NN2c2cccc(F)c2)cc1` (stereo not drawn) [Example 69], the melting point lay in the range of 116 to 117 °C.
Still for that read-out and setting: as for `COC(=O)C1=NN(c2ccc(S(C)(=O)=O)cc2)C(c2ccc(C)cc2)C1` (stereo not drawn) [Example 39], the figure is 155 to 160 °C; as for `CS(=O)(=O)c1ccc(N2N=C(C(F)(F)F)CC2c2ccc(F)cc2)cc1` (stereo not drawn) [Example 9], 121 to 122 °C.
`CC1=NN(c2ccccc2)C(c2ccc(S(C)(=O)=O)cc2)C1` (stereo not drawn) [Example 77] returned a melting point of 132 to 135 °C.
Compound `NC(=O)C1=NN(c2ccc(S(N)(=O)=O)cc2)C(c2ccccc2)C1` (stereo not drawn) [Example 40] yielded a melting point of 200 to 205 °C.
Still for that read-out and setting: with `CS(=O)(=O)c1ccc(N2N=C(C(F)(F)F)CC2c2cccc(F)c2)cc1` (stereo not drawn) [Example 19] the figure was 149 to 151 °C; with `NS(=O)(=O)c1ccc(N2N=C(C(F)(F)F)CC2c2ccc(OC(F)(F)F)cc2)cc1` (stereo not drawn) [Example 22], 134 to 137 °C; with `CS(=O)(=O)c1ccc(C2CC(C(F)(F)F)=NN2c2ccc(Cl)cc2Cl)cc1` (stereo not drawn) [Example 74], 103 to 106 °C.
On the same count and under the same terms, as for `Cc1ccc(C2CC(C(F)(F)F)=NN2c2ccc(S(N)(=O)=O)cc2)cc1` (stereo not drawn) [Example 1], the figure is 140 to 143 °C; as for `COc1ccc(C2CC(C(F)(F)F)=NN2c2ccc(S(N)(=O)=O)cc2)c(C)c1` (stereo not drawn) [Example 56], 148 to 150 °C; as for `COC(=O)C1=NN(c2ccc(S(N)(=O)=O)cc2)C(c2ccccc2)C1` (stereo not drawn) [Example 38], 84 to 90 °C.
On to `NS(=O)(=O)c1ccc(N2N=C(C(F)F)CC2c2ccc(F)cc2F)cc1` (stereo not drawn) [Example 57], for which the melting point fell in the range of 157 to 160 °C.
On the same count and under the same terms, with `NS(=O)(=O)c1ccc(N2N=C(C(F)(F)F)CC2c2ccc(C(F)(F)F)cc2F)cc1` (stereo not drawn) [Example 53] the figure was 170 to 173 °C; with `CC1=NN(c2ccc(S(N)(=O)=O)cc2)C(c2ccc(F)cc2)C1` (stereo not drawn) [Example 26], 206 to 208 °C.
On to `COc1ccc(C2CC(C(F)(F)F)=NN2c2ccc(S(N)(=O)=O)cc2)cc1C` (stereo not drawn) [Example 45], for which the melting point was 170 to 175 °C.
With `CC1=NN(c2ccc(S(N)(=O)=O)cc2)C(c2ccc(C)cc2)C1` (stereo not drawn) [Example 28], the melting point was in the range of 195 to 197 °C.
